Experimental data as given in US20050288347A1, “Certain triazole-based compounds, compositions, and uses thereof” (priority 2004, published 2005).
“Also recorded” adds a separate entry of the source.

Biological target: protein kinase
Experiment: HTS ATP-utilizing enzyme assay, off-chip mobility-shift format (Caliper HTS 250)
Assay type: biochemical, human
Details: kinase(s) for which the compound exhibits protein kinase inhibitory activity; test compound 10 μM; active = greater than three-sigma from the mean activity of inactive compounds
In short: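 Single-point screen at 10 μM compound in HEPES pH 7.5 buffer with Triton X-100 and BSA, 2.5 h at 20–22 °C. Substrate-to-phosphopeptide ratio measured by off-chip microfluidic mobility shift; EDTA wells as 100% and DMSO wells as 0% control, hits called at three-sigma limits.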

SMILES	Kinase
Oc1cc2ccccc2cc1-c1nnc(S)n1Cc1ccco1 [3-(4-(furan-2-ylmethyl)-5-mercapto-4H-1,2,4-triazol-3-yl)naphthalen-2-ol]	AURORA-A
C=CCn1c(S)nnc1-c1cc2ccccc2cc1O [3-(4-allyl-5-mercapto-4H-1,2,4-triazol-3-yl)naphthalen-2-ol]	MSK1
CCn1c(S)nnc1-c1cc2ccccc2cc1O [3-(4-ethyl-5-mercapto-4H-1,2,4-triazol-3-yl)naphthalen-2-ol]	AURORA-A
COCCn1c(S)nnc1-c1cc2ccccc2cc1O [3-(5-mercapto-4-(2-methoxyethyl)-4H-1,2,4-triazol-3-yl)naphthalen-2-ol]	AURORA-A

Same assay, conditions: test compound 10 μM; active = activity greater than three-sigma from the mean of the predominately inactive population for that enzyme

SMILES	protein kinase against which the compound exhibits inhibitory activity (Table 3)
CCOCCSc1nnc(-c2cccs2)[nH]1 [3-(2-ethoxyethylthio)-5-(thiophen-2-yl)-4H-1,2,4-triazole]	AURORA-A; also recorded: DYRK2; also recorded: GSK3-β
CCOCCSc1nnc(-c2ccccc2)[nH]1 [3-(2-ethoxyethylthio)-5-phenyl-4H-1,2,4-triazole]	3-(2-ethoxyethylthio)-5-phenyl-4H-1,2,4-triazole AURORA-A and FLT-3 and DYRK2
COCCSc1nnc(-c2ccc(OC)cc2)n1-c1ccccc1 [3-(2-methoxyethylthio)-5-(4-methoxyphenyl)-4-phenyl-4H-1,2,4-triazole]	SYK and INSR and PRAK
CCOCCSc1nnc(-c2ccc(Cl)c(Cl)c2)[nH]1 [3-(3,4-dichlorophenyl)-5-(2-ethoxyethylthio)-4H-1,2,4-triazole]	AURORA-A; also recorded: GSK3-β; also recorded: GSK3-α
CS(=O)(=O)c1ccc(CSc2nnc(-c3ccc(Cl)c(Cl)c3)[nH]2)cc1 [3-(3,4-dichlorophenyl)-5-(4-(methylsulfonyl)benzylthio)-4H-1,2,4-triazole]	AURORA-A; also recorded: FLT-3
Clc1ccccc1CSc1nncn1-c1cccnc1 [3-(3-(2-chlorobenzylthio)-4H-1,2,4-triazol-4-yl)pyridine]	PDGFRR-α
FC(F)(F)c1cccc(-c2nnc(SCc3cccc(I)c3)[nH]2)c1 [3-(3-iodobenzylthio)-5-(3-(trifluoromethyl)phenyl)-4H-1,2,4-triazole]	CHEK2
COc1ccc(-c2nnc(SCc3cccc(I)c3)[nH]2)cc1 [3-(3-iodobenzylthio)-5-(4-methoxyphenyl)-4H-1,2,4-triazole]	AURORA-A
Cc1nnc(SCc2cccc(I)c2)[nH]1 [3-(3-iodobenzylthio)-5-methyl-4H-1,2,4-triazole]	AURORA-A; also recorded: GSK3-α; also recorded: DYRK2
Ic1cccc(CSc2nnc(-c3ccccc3)[nH]2)c1 [3-(3-iodobenzylthio)-5-phenyl-4H-1,2,4-triazole]	AURORA-A; also recorded: c-TAK1
Cc1ccc(-c2nnc(SCCC(=O)O)n2-c2ccc(C)cc2)cc1 [3-(4,5-dip-tolyl-4H-1,2,4-triazol-3-ylthio)propanoic acid]	DAPK1
O=C(O)CCSc1nnc(-c2ccc(O)cc2)n1Cc1ccccc1 [3-(4-benzyl-5-(4-hydroxyphenyl)-4H-1,2,4-triazol-3-ylthio)propanoic acid]	GSK3-β; also recorded: GSK3-α
COc1ccc(-c2nnc(SCc3ccc(Cl)cc3)n2-c2ccccc2)cc1OC [3-(4-chlorobenzylthio)-5-(3,4-dimethoxyphenyl)-4-phenyl-4H-1,2,4-triazole]	CDK1
Cn1c(SCc2ccc(Cl)c(Cl)c2)nnc1-c1ccc(Cl)cc1 [3-(4-chlorophenyl)-5-(3,4-dichlorobenzylthio)-4-methyl-4H-1,2,4-triazole]	PRAK and FYN
Fc1ccc(CSc2nnc(-c3ccc(OC(F)(F)F)cc3)[nH]2)cc1 [3-(4-fluorobenzylthio)-5-(4-(trifluoromethoxy)phenyl)-4H-1,2,4-triazole]	FLT-3; also recorded: AURORA-A
Fc1ccc(CSc2nnc(-c3cccs3)[nH]2)cc1 [3-(4-fluorobenzylthio)-5-(thiophen-2-yl)-4H-1,2,4-triazole]	AURORA-A; also recorded: FLT-3; also recorded: DYRK2
COc1ccc(Cc2nnc(SCc3cccc4ccccc34)[nH]2)cc1 [3-(4-methoxybenzyl)-5-(naphthalen-1-ylmethylthio)-4H-1,2,4-triazole]	AURORA-A
COc1ccc(-c2nnc(SCc3ccc(S(C)(=O)=O)cc3)[nH]2)cc1 [3-(4-methoxyphenyl)-5-(4-(methylsulfonyl)benzylthio)-4H-1,2,4-triazole]	FLT-3
O=[N+]([O-])c1ccc(CSc2nnc[nH]2)cc1 [3-(4-nitrobenzylthio)-4H-1,2,4-triazole]	MSK2 and SRC
O=C(O)CCSc1nnc(-c2cccnc2)n1-c1ccccc1 [3-(4-phenyl-5-(pyridin-3-yl)-4H-1,2,4-triazol-3-ylthio)propanoic acid]	AURORA-A

SMILES	protein kinase against which the compound exhibits inhibitory activity (Table 3)
COCCCn1c(C)nnc1SCc1ccc(C(C)(C)C)cc1 [3-(4-tert-butylbenzylthio)-4-(3-methoxypropyl)-5-methyl-4H-1,2,4-triazole]	MAPKALPK-2 and AKT1
CCOCCSc1nnc(-c2cccnc2)[nH]1 [3-(5-(2-ethoxyethylthio)-4H-1,2,4-triazol-3-yl)pyridine]	AURORA-A
OCC(O)CSc1nnc(-c2cccc(C(F)(F)F)c2)[nH]1 (centres unmarked) [3-(5-(3-(trifluoromethyl)phenyl)-4H-1,2,4-triazol-3-ylthio)propane-1,2-diol]	AURORA-A; also recorded: FLT-3; also recorded: CHEK2
OCC(O)CSc1nnc(-c2cccc(Cl)c2)[nH]1 (centres unmarked) [3-(5-(3-chlorophenyl)-4H-1,2,4-triazol-3-ylthio)propane-1,2-diol]	AURORA-A; also recorded: FLT-3; also recorded: CHEK2
Cn1c(SCc2ccc(Cl)cc2)nnc1-c1cccnc1 [3-(5-(4-chlorobenzylthio)-4-methyl-4H-1,2,4-triazol-3-yl)pyridine]	CHEK2
COc1ccc(-c2nnc(SCC(O)CO)[nH]2)cc1 (centres unmarked) [3-(5-(4-methoxyphenyl)-4H-1,2,4-triazol-3-ylthio)propane-1,2-diol]	AURORA-A; also recorded: FLT-3; also recorded: DYRK2
O=[N+]([O-])c1ccc(-c2nnc(SCC(O)CO)[nH]2)cc1 (centres unmarked) [3-(5-(4-nitrophenyl)-4H-1,2,4-triazol-3-ylthio)propane-1,2-diol]	AURORA-A; also recorded: FLT-3; also recorded: DYRK2
CCn1c(SCc2ccc(C(C)(C)C)cc2)nnc1-c1cccnc1 [3-(5-(4-tert-butylbenzylthio)-4-ethyl-4H-1,2,4-triazol-3-yl)pyridine]	MAPKAPK-2
Cn1c(SCc2ccc(C(C)(C)C)cc2)nnc1-c1cccnc1 [3-(5-(4-tert-butylbenzylthio)-4-methyl-4H-1,2,4-triazol-3-yl)pyridine]	PDGFRR-α
c1cncc(-c2nnc(SCC3CCCO3)[nH]2)c1 (centres unmarked) [3-(5-((tetrahydrofuran-2-yl)methylthio)-4H-1,2,4-triazol-3-yl)pyridine]	AURORA-A
Cc1ccc(-n2c(SCc3ccccc3)nnc2-c2cccnc2)cc1 [3-(5-(benzylthio)-4-p-tolyl-4H-1,2,4-triazol-3-yl)pyridine]	AURORA-A
c1ccc(CCn2c(SCc3ccccc3)nnc2-c2cccnc2)cc1 [3-(5-(benzylthio)-4-phenethyl-4H-1,2,4-triazol-3-yl)pyridine]	MSK1
c1cncc(-c2nnc(SCC3CC3)[nH]2)c1 [3-(5-(cyclopropylmethylthio)-4H-1,2,4-triazol-3-yl)pyridine]	FLT-3; also recorded: AURORA-A
OCC(O)CSc1nnc(-c2cccnc2)[nH]1 (centres unmarked) [3-(5-(pyridin-3-yl)-4H-1,2,4-triazol-3-ylthio)propane-1,2-diol]	AURORA-A
CN(C)CCCSc1nnc(C(C)(C)C)[nH]1 [3-(5-tert-butyl-4H-1,2,4-triazol-3-ylthio)-N,N-dimethylpropan-1-amine]	c-TAK1
COc1cccc(OCc2nnc(SC)n2C)c1 [3-((3-methoxyphenoxy)methyl)-4-methyl-5-(methylthio)-4H-1,2,4-triazole]	AURORA-A
CCCCSc1nnc(COc2ccc(Br)cc2)n1CC [3-((4-bromophenoxy)methyl)-5-(butylthio)-4-ethyl-4H-1,2,4-triazole]	CDK2-cyclinA; also recorded: AURORA-A
CCSc1nnc(COc2ccc(CC)cc2)n1C [3-((4-ethylphenoxy)methyl)-5-(ethylthio)-4-methyl-4H-1,2,4-triazole]	AURORA-A
COc1ccc(-c2nnc(SCc3cccnc3)[nH]2)cc1 [3-((5-(4-methoxyphenyl)-4H-1,2,4-triazol-3-ylthio)methyl)pyridine]	AURORA-A; also recorded: FLT-3; also recorded: DYRK2
Clc1ccc(OCc2nnc(SCc3cccnc3)[nH]2)cc1 [3-((5-((4-chlorophenoxy)methyl)-4H-1,2,4-triazol-3-ylthio)methyl)pyridine]	FLT-3
